From US20070287676A1, “Diagnosis and treatment of endometriosis” (priority 2006, published 2007)
“Also recorded” adds a separate entry of the source.

Key:
YHES cells = experiment: Long-term culture and morphology after treatment; format: cell-based, human
From the text: The micrographs of the first two rows were taken using 20× magnification, and those of the third row were taken using 10× magnification. The micrographs of the first row and the first two micrographs of second row were obtained using differential inference contrast (DIC) optic; the others were obtained without the DIC optic. […]

PR-A = PR-A mRNA expression by RT-PCR in treated YHES cells; format: cell-based, human
Experimental: (§1) The YHES cells were harvested by trypsinization and seeded in 12-well at 5×10^4 cells/well plates and were pretreated with E2 and P as described above. […] Total RNA was isolated from treated cells using TRIzol reagent (Invitrogen, Carlsbad, Calif.) according to the manufacturer's instructions. The integrity of total RNA was inspected on an agarose gel. One microgram of total RNA from each sample was treated with DNase I to remove potential DNA contamination and then reverse-transcribed using Superscript II Reverse Transcriptase (Invitrogen). First-strand cDNA obtained from RNA samples was stored at −80° C. until use. To measure the mRNA expression levels of AR, PR-A, PR-B, Fas and FasL in each cell culture, semi-quantitative PCR analysis was performed.
(§2) Quantitative real-time RT-PCR was carried out on an ABI 7900 DNA sequencer (Applied Biosystems), and monitored by SYBR Green I (Qiagen, Valencia, Calif.). The PCR products of the expected size were visualized on a 0.8% agarose gel. The relative mRNA level of each gene was calculated using relative quantitation of gene expression (Applied Biosystems, Foster City, Calif.) with 18s as an endogenous control. The reproducibility of the quantitative measurements was evaluated by two independent cDNA syntheses. The means and standard deviations of the replicated measurements were calculated and presented as mean ±s.d.

[1] = system: endometrial stromal cells; conditions: in vitro; cited from earlier work
PR-B = PR-B mRNA expression by RT-PCR in treated YHES cells; format: cell-based, human
Experimental: as §1, §2

[2] = system: YHES cells pretreated with H2O2; experiment: H2O2-induced cell proliferation, MTT assay; format: cell-based, human; conditions: 100 μM, H2O2 1 μM, 48 hours, vs H2O2 only
Experimental: MTT assay was performed after 48 hours of treatment.
(§3) The YHES cells were harvested by trypsinization and seeded in 96-well plate at ˜1×10^4 cells/well. The cells were allowed to attach to the plate for overnight at 37° C. with 5% C02 in a humidified incubator. Then they were pretreated with physiological concentration of E2 (10^-9M) and P (10^-7M) for 24 hr to maintain hormonal responsiveness. […] Cell growth was valuated by the MTT assay (ATCC, Manassas, Va.). MTT assay was performing according to the manufacturer's instructions, and in triplicate to generate mean values. Cell numbers in the untreated control were arbitrarily assigned as 1. The relative cell growth was expressed as fold increase/decrease relative to the control. Data were presented as mean values from three independently repeated experiments.
The addition of H202 was meant to mimic the oxidative stress as reported in endometriosis. […] RU486 suppressed cell proliferation by 75% at the concentration of 100 μM.

[3] = system: YHES cells (immortalized human endometrial stromal cell line); experiment: MTT cell proliferation assay in YHES cells; format: cell-based; conditions: 48 hr
Experimental: An immortalized human endometrial stromal cell line was maintained following Krikun et al. (Krikun et al. 2004 Endocrinology 145:2291-6). Cells were maintained in phenol red-free DMEM/F12 (Gibco, CA) medium supplemented with 10% charcoal-dextran stripped FBS (Biomeda, CA), 1 μl/ml sodium pyruvate (Gibco, CA) and 1× Pen/Strep/Fungizone (Gibco, CA), at 37° C. with 5% C02 in a humidified incubator.
as §3

FasL = FasL mRNA expression by RT-PCR in treated YHES cells; format: cell-based, human
Experimental: as §1, §2

endometrial cells = conditions: immortalized human endometrial stromal cells; cited from earlier work
AR [4] = experiment: AR mRNA expression by RT-PCR in treated YHES cells; format: cell-based, human
Experimental: as §1, §2

Fas = Fas mRNA expression by RT-PCR in treated YHES cells; format: cell-based, human; conditions: TSA 10 μM, time not stated
Experimental: as §1, §2

endometriotic cells = experiment: Sensitivity of endometriotic versus endometrial cells to TSA (unpublished observation); format: cell-based; conditions: Wu and Guo
AR [5] = experiment: Western blot of AR protein in treated YHES cells; format: cell-based, human; conditions: 16 hrs; TSA 10 μM, CDB 100 μM, NAC 10 mM
Experimental: Western blot analysis was performed to measure protein expression of β-actin, ERα, ERβ, and AR. […] Whole cell lysate was prepared as previously described (44) by using RIPA lysis buffer containing 50 mM Tris, pH 7.4, 150 mM NaCl, 12 mM EDTA, 1% Triton X-100, 0.5% sodium deoxycholate, and 0.1% SDS. To avoid degradation, a protease inhibitor cocktail III (Sigma) was added at 2%. Total protein was quantified using a BCA protein assay kit (Pierce, Rockford, Ill.). Ten microgram of total protein was separated by electrophoresis on 10% SDS-polyacrylamide gels. The protein was then transferred onto PVDF membranes (Milipore, Bedford, Mass.). […] The blot was then subsequently incubated with primary antibody rabbit anti-human ERα (Santa Cruz Biotechnology, CA), rabbit anti-human ERβ (Zymed Laboratories, South San Francisco, Calif.), rabbit anti-β-actin (Cell Signaling Technology, Beverly, Mass.), or rabbit ant-human AR (Santa Cruz Biotechnology, CA), respectively, in blocking solution (5% nonfat dry milk plus PBS) for 2 hr at room temperature. After washing with PBS plus 0.5% Tween-20, the membranes were then incubated with the secondary antibody goat anti-rabbit IgG (H+L)-HRP (Santa Cruz Biotechnology, CA) at 1:8000 dilution in blocking solution for 2 h at room temperature. […]

COX-2 = conditions: cited from earlier work
[6] = 8 h, 18 h and 36 h, TSA 10 μM, CDB 100 μM, NAC 10 mM, semi-quantitative RT-PCR

CC(/C=C/C(=O)NO)=C\[C@@H](C)C(=O)c1ccc(N(C)C)cc1 [TSA, trichostatin A]
cell morphology (YHES cells; 24 h after the treatment): signs of apparent apoptosis | recovery judged by morphology (YHES cells; four weeks after the treatment, TSA and RU486 at 100 μM): did not recover | PR-A mRNA expression level vs untreated control (PR-A; [6]): increased | PR-A expression, comparison among treatment groups (PR-A; overall, real-time RT-PCR): greatest increase | effect on proliferation [1]: suppresses proliferation of endometrial stromal cells; also recorded: suppressing proliferation of endometrial and endometriotic cells in vitro | PR-B mRNA expression level vs untreated control (PR-B; [6]): increased | PR-B expression, comparison among treatment groups (PR-B; overall, real-time RT-PCR): greatest increase | suppression of H2O2-induced cell proliferation [2]: 50% | reduction of cell proliferation as compared with controls ([3]; 100 μM): ~90% | effect on cell proliferation ([3]; across 100, 10, 1, 0.1 μM): strong concentration-dependent antiproliferative effect | increase in FasL expression as compared with the controls (FasL; 18 h after the treatment): ~25 fold | FasL expression (FasL; especially 18 and 36 h after the treatment): dramatic increase | effect on cell cycle (endometrial cells): induce cell cycle arrest | AR mRNA expression level vs untreated control (AR [4]; [6]): increased | decrease of AR expression as compared with the control group (AR [4]; 36 h of treatment, real-time RT-PCR): about 50% | Fas expression vs control group (Fas): lower than the control group | sensitivity of endometriotic cells relative to endometrial cells (endometriotic cells): over 100 fold | AR protein level vs control group (AR [5]): highest expression | effect on IL-1β-induced COX-2 expression (COX-2): suppresses IL-1β-induced COX-2 expression
